Counter-ions that a name gives are not always drawn.
Experiments:
MMP 1 = molecular target: T1, MMP 1 (Homo sapiens, UniProt P03956); assay: In vitro collagenase assay (human recombinant fibroblast collagenase); format: biochemical; conditions: read-out: MMP 1 IC 50
T1 construct: human recombinant fibroblast collagenase (truncated, mw=18,828, WAR, Radnor)
T1 sequence (P03956 100-269 limits assumed): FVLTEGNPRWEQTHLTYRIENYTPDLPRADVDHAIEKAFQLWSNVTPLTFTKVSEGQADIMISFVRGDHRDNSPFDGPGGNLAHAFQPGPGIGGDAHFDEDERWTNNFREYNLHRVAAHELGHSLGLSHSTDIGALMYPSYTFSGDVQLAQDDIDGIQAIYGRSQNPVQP
Protocol: The assay is based on the cleavage of a peptide substrate ((Dnp-Pro-Cha-Gly-Cys(iNe)-His-Ala-Lys(NMa)-NH2), Peptide International, Inc.) by collag,enase releasing the fluorescent NMa group which is quantitated on the fluorometer. Dnp quenches the NiIa fluorescence in the intact substrate. […] Substrate is dissolved in methanol and stored frozen in 1 mM aliquots. Collagenase is stored frozen in buffer in 25 µM aliquots. For the assay, substrate is dissolved in HCBC buffer to a final concentration of 10 μM and collagenase to a final concentration of 5 nM. Compounds are dissolved in methanol, DMSO, or HCBC. The methanol and DMSO are diluted in HCBC to <1.0%. Compounds are added to the 96 well plate containing enzyme and the reaction is started by the addition of substrate.
The slope of the line is calculated and represents the reaction rate.
The mean (x±sem) of the control rate is calculated and compared for statistical significance (p<0.05) with drug-treated rates using Dunnett's multiple comparison test.

MMP 9 = molecular target: T2, MMP 9 (Homo sapiens, UniProt P14780); assay: In vitro gelatinase assay (human neutrophil gelatinase B); format: biochemical; conditions: read-out: MMP 9 IC 50
T2 construct: from tissue; host or cells: human neutrophils
Protocol: The assay is based on the cleavage of the thiopeptide substrate ((Ac-Pro-Leu-Gly(2 mercapto-4 methyl-pentanoyl)-Leu-Gly-OEt), Bachem Bioscience) by the enzyme, gelatinase, releasing the substrate product which reacts calorimetrically with DTNB ((5,5′-dithio-bis(2-nitro-benzoic acid)). The enzyme activity is measured by the rate of the color increase.
The thiopeptide substrate is made up fresh as a 20 mM stock in 100% DMSO and the DTNB is dissolved in 100% DMSO as a 100 mM stock and stored in dark at room temperature. Both the substrate and DTNB are diluted together to 1 mM with substrate buffer (50 mM HEPES pH 7.5, 5 mM CaCl2) before use. The stock of human neutrophil gelatinase B is diluted with assay buffer (50 mnM HEPES pH 7.5, 5 mM CaCl2, 0.02% Brij) to a final concentration of 0.15 mnM.
The increase in OD405 is plotted and the slope of the line is calculated which represents the reaction rate.

MMP 13 = MMP 13 (Homo sapiens, UniProt P45452); assay: MMP 13 inhibition (manual); format: biochemical; conditions: read-out: MMP 13 IC 50
TACE = molecular target: T3, TACE (Homo sapiens, UniProt P78536); assay: Procedure for measuring TACE inhibition; format: biochemical; conditions: for IC50: read-out: TACE IC 50; for inhibition at 10 µM: read-out: TACE % inhibition at 10 micromolar (*)
T3 construct: purchased Immunex
Protocol: Using 96-well black microtiter plates, each well receives a solution composed of 10 μL TACE (Inmunex, final concentration 1 μg/mL), 70 μL Tris buffer, pH 7.4 containing 10% glycerol (final concentration 10 mM), and 10 μL of test compound solution in DMSO ([…], DMSO concentration <1%) and incubated for 10 minutes at room temperature. The reaction is initiated by addition of a fluorescent peptidyl substrate (final concentration 100 μM to each well and then shaking on a shaker for 5 sec.
The reaction is read (excitation 340 nm, emission 420 nm) for 10 min. and the increase in fluorescence over time is plotted as a linear line. The slope of the line is calculated and represents the reaction rate.
The mean (xtsem) of the control rate is calculated and compared for statistical significance (p<0.05) with drug-treated rates using Dunnett's multiple comparison test.

T3 sequence (P78536 215-824): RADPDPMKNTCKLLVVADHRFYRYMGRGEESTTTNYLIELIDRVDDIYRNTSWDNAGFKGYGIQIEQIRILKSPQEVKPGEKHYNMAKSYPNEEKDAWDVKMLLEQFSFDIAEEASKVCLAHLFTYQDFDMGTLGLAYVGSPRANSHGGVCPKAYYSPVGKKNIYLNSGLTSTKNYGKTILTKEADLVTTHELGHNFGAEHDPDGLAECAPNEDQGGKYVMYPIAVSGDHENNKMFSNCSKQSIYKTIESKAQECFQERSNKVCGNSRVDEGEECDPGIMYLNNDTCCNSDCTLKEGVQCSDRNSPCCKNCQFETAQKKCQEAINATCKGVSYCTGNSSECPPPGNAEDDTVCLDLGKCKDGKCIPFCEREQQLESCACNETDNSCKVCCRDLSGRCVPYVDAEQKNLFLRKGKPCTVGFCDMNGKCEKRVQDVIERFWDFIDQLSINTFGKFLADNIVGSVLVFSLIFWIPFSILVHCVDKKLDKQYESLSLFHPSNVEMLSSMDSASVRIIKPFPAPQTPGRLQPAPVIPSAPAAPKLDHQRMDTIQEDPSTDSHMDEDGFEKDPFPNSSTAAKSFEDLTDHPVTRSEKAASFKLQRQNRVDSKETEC
T2 sequence (P14780 94-707): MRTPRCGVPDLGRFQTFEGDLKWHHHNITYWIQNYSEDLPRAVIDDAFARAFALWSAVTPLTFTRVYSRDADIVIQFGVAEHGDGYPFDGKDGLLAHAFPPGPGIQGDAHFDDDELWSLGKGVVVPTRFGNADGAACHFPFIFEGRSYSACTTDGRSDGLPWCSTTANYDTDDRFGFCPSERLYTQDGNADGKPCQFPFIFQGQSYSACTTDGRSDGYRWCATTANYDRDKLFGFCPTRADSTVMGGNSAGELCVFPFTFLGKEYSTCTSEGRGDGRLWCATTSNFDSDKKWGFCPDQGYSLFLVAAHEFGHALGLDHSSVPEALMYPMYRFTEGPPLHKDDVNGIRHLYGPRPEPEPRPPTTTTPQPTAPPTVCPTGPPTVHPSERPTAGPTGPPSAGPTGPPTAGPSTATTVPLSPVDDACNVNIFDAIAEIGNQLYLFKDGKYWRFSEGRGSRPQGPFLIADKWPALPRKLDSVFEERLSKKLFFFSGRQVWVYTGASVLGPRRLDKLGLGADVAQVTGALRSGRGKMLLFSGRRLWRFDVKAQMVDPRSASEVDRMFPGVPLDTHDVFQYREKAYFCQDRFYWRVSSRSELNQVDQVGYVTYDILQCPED

| SMILES | melting point [°C] | IC50 (MMP 1) [nM] | IC50 (MMP 9) [nM] | IC50 (MMP 13) [nM] | IC50 (TACE) [nM] | inhibition at 10 µM (TACE) [%] |
| --- | --- | --- | --- | --- | --- | --- |
| CCCCOc1ccc(S(=O)(=O)C2(C(=O)NO)CCN(Cc3ccc(OCCN4CCCCC4)cc3)CC2)cc1 (as salt: HCl) [Example 242, 4-(4-Butoxy-benzenesulfonyl)-1-[4-(2-piperidin-1-yl-ethoxy)-benzyl]-piperidine-4-carboxylic acid hydroxyamide] | 155 |  |  |  |  |  |
| CCCCOc1ccc(S(=O)(=O)C2(C(=O)NO)CCN(Cc3cccc(OCCN4CCOCC4)c3)CC2)cc1 (as salt: HCl) [Example 243, 4(4-Butoxy-benzenesulfonyl)-1-[3-(2-morpholinyl-1-ylthoxy)-benzyl]-piperidine-4-carboxylic acid hydroxyamide] | 123 |  |  |  |  |  |
| CN1CCC(C(=O)NO)(S(=O)(=O)c2ccc(Oc3ccc(Cl)cc3)cc2)CC1 (as salt: HCl) [Example 249, 4-[4-(4-chloro-phenoxy)-benzenesulfonyl]1-methyl-piperidine-4-carboxylic acid hydroxyamide] | 52 |  |  |  |  |  |
| CCN1CCC(C(=O)NO)(S(=O)(=O)c2ccc(Oc3ccc(Cl)cc3)cc2)CC1 (as salt: HCl) [Example 250, 4-[4-(4-chloro-phenoxy)-benzenesulfonyl]1-ethyl-piperidine-4-carboxylic acid hydroxyamide] | 158 |  |  |  |  |  |
| CCCCOc1ccc(S(=O)(=O)C2(C(=O)NO)CCN(Cc3cccc(OC)c3)CC2)cc1 (as salt: HCl) [Example 260, 4-(4-butoxy-benzenesulfonyl)-1-(3-methoxy-benzyl)-piperidine-4-carboxylic acid hydroxyamide] | 137 |  |  |  |  |  |
| COc1ccc(S(=O)(=O)C2(C(=O)NO)CCN(Cc3ccc(-c4ccccn4)cc3)CC2)cc1 (as salt: HCl) [Example 262, 4-(4-methoxy-benzenesulfonyl)-1-(4-pyridin-2-yl-benzyl)-piperidine-4-carboxylic acid hydroxyamide] | 214 |  |  |  |  |  |
| CCCCOc1ccc(S(=O)(=O)C2(C(=O)NO)CCN(Cc3ccc(Cl)c(Cl)c3)CC2)cc1 (as salt: HCl) [Example 263, 1-(3,4-Dichlorobenzyl)-4-(4-butoxy-benzenesulfonyl)-piperidine-4-carboxylic acid hydroxyamide] | 256.8 |  |  |  |  |  |
| CN1CCC(C(=O)NO)(S(=O)(=O)c2ccc(OCc3ccc(Cl)cc3)cc2)CC1 (as salt: HCl) [Example 264, [4-(4-Chloro-benzyloxy)benzenesulfonyl]-1-methylpiperidine-4-carboxylic acid hydroxamide] | 117.8 |  |  |  |  |  |
| Cc1ccc(CN2CCC(C(=O)NO)(S(=O)(=O)c3ccc(OCc4ccc(Cl)cc4)cc3)CC2)cc1 (as salt: HCl) [Example 266, [4-(4-Chloro-benzyloxy)-benzenesulfonyl]-1-(4-methylbenzyl)-piperidine-4-carboxylic acid hydroxamide] | 172 |  |  |  |  |  |
| CCCCOc1ccc(S(=O)(=O)C2(C(=O)NO)CCN(Cc3ccc(C)cc3)CC2)cc1 (as salt: HCl) [Example 267, 4-(4-Butoxy-benzenesulfonyl)-1-(4-methylbenzyl)-piperidine-4-carboxylic acid hydroxamide] | 137 |  |  |  |  |  |
| CCCCOc1ccc(S(=O)(=O)C2(C(=O)NO)CCN(Cc3ccc(C#N)cc3)CC2)cc1 (as salt: HCl) [Example 268, 4-(4-Butoxy-benzenesulfonyl)-1-(4-cyano-benzyl)-piperidine-4-hydroxamide carboxylic acid hydroxamide] | 241.6 |  |  |  |  |  |
| CCCCOc1ccc(S(=O)(=O)C2(C(=O)NO)CCN(Cc3ccncc3)CC2)cc1 (as salt: HCl) [Example 269, 4-(4-Butoxy-benzenesulfonyl)-1-pyridin-4-ylmethyl-piperidine-4-carboxylic acid hydroxamide] | 118 |  |  |  |  |  |
| CCCCCC(C(=O)NO)[S+]([O-])c1ccc(OC)cc1 (single isomer, unassigned) [Example 81b, 2S*-(4-methoxy-phenyl-R*-sulfinyl)-heptanoic acid hydroxyamide] |  | 3760 | 154 | 15.7 | 228 |  |
| CCN1CCC(C(=O)NO)(S(=O)(=O)c2ccc(Oc3ccc(Cl)cc3)cc2)CC1 [Example 250, 4-[4-(4-chloro-phenoxy)-benzenesulfonyl]1-ethyl-piperidine-4-carboxylic acid hydroxyamide] |  | 1720 | 1.6 | 0.8 | 413 |  |
| CCCCN1CCC(C(=O)NO)(S(=O)(=O)c2ccc(Oc3ccc(Cl)cc3)cc2)CC1 [Example 251] |  | 1070 | 0.8 | 0.9 | 301 |  |
| CCCCN1CCC(C(=O)NO)(S(=O)(=O)c2ccc(OCCC(C)C)cc2)CC1 [Example 256, 1 -Butyl-4-[4-(3-methyl-butoxy)-benzenesulfonyl]-piperidine-4-carboxylic acid hydroxyamide] |  | 10000 | 7.2 | 2.9 |  | 43 |
| CCC(CC)COc1ccc(S(=O)(=O)C2(C(=O)NO)CCN(Cc3ccccc3)CC2)cc1 [Example 259, 1-Benzyl4-[4-(2-ethyl-butoxy)-benzenesulfonyl]-piperidine-4-carboxylic acid hydroxyamide] |  | 3160 | 14.3 | 5.3 |  | 39 |
| CCCCOc1ccc(S(=O)(=O)C2(C(=O)NO)CCN(Cc3ccc(Cl)c(Cl)c3)CC2)cc1 [Example 263, 1-(3,4-Dichlorobenzyl)-4-(4-butoxy-benzenesulfonyl)-piperidine-4-carboxylic acid hydroxyamide] |  | 3670 | 20.3 | 5.2 |  | 57.7 |
| CN1CCC(C(=O)NO)(S(=O)(=O)c2ccc(OCc3ccc(Cl)cc3)cc2)CC1 [Example 264, [4-(4-Chloro-benzyloxy)benzenesulfonyl]-1-methylpiperidine-4-carboxylic acid hydroxamide] |  | 4290 | 2.9 | 3.1 | 182 |  |
| CCCCOc1ccc(S(=O)(=O)C2(C(=O)NO)CCN(Cc3cccc(Oc4ccccc4)c3)CC2)cc1 [Example 265, 4-(4-Butoxy-benzenesulfonyl)-1-(3-phenoxy-benzyl)-piperidine-4-carboxylic acid hydroxamide] |  | 1940 | 9.3 | 7.8 | 1040 |  |
| CCCCOc1ccc(S(=O)(=O)C2(C(=O)NO)CCN(Cc3ccc(C)cc3)CC2)cc1 [Example 267, 4-(4-Butoxy-benzenesulfonyl)-1-(4-methylbenzyl)-piperidine-4-carboxylic acid hydroxamide] |  | 3620 | 5.4 | 2.3 | 508 |  |
| CCCCOc1ccc(S(=O)(=O)C2(C(=O)NO)CCN(Cc3ccc(C#N)cc3)CC2)cc1 [Example 268, 4-(4-Butoxy-benzenesulfonyl)-1-(4-cyano-benzyl)-piperidine-4-hydroxamide carboxylic acid hydroxamide] |  | 2290 | 2.8 | 1.1 | 278 |  |
| CCCCOc1ccc(S(=O)(=O)C2(C(=O)NO)CCN(Cc3ccncc3)CC2)cc1 [Example 269, 4-(4-Butoxy-benzenesulfonyl)-1-pyridin-4-ylmethyl-piperidine-4-carboxylic acid hydroxamide] |  | 2070 | 2.2 | 1.4 | 296 |  |

— patent US6441023B1 (American Home Products Corporation, priority 1997, dated 2002)
